Test [1] deals with T1, human transporter OATP1B3 (Homo sapiens, UniProt Q9NPD5).
T1 construct: expressed in transfected cells; host or cells: MDCK-II
T1 sequence (Q9NPD5 1-702): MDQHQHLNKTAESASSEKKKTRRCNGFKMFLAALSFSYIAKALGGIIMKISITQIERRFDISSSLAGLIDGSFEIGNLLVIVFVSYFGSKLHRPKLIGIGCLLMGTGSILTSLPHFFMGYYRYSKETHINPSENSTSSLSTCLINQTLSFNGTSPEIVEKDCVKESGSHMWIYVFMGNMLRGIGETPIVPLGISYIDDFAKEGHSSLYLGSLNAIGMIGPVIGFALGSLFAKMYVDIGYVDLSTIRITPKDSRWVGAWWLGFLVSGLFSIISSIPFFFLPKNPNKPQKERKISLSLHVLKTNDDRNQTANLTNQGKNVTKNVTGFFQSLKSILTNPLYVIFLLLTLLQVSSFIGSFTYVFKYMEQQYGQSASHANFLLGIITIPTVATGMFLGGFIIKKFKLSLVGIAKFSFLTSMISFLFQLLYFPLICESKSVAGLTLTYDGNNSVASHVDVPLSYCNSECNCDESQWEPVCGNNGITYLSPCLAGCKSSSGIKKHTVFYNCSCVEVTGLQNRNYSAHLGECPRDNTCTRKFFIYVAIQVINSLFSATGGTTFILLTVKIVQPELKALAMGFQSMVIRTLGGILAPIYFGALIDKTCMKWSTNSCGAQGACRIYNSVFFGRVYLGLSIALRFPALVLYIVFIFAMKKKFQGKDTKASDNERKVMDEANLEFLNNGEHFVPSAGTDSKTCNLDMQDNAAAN
The test is described as follows: In vitro ion transport assay 1, OATP1B3. It counts as cell-based. To be noted: probe substrate 2 μM [3H]-CCK-8. As for the experimental part:
Compound 1 was studied in the concentration range of 0.1-100 μM for its potency against transport mediated by various transporter proteins. [table]

Test [2] concerns Translocator Protein (18 kDa) (TSPO). In words: TSPO immunofluorescence in cortex, L61 ASYN transgenic mice, 3 month study. It counts as in vivo. As to conditions: 5 and 10 mg/kg i.p. daily, 3 months. As for the experimental part: Briefly, Compound 1 was injected into L61 ASYN transgenic mice and non-transgenic control mice (i.p., once daily) at doses of 5 and 10 mg/kg for 3 months (79 total mice, n=14-17 mice per treatment group). The vehicle control consisted of a solution containing 5% DMSO+20% Cremphor EL+0.9% normal saline. The baseline grip strength of mice was evaluated prior to starting treatments for the 3 month study, and then re-evaluated following 70 days of treatment with vehicle or Compound 1 (5 or 10 mg/kg, i.p. injection daily).
Neuroinflammation is associated with increased expression of the 18-kDa translocator protein (TSPO), which is a marker for inflammation and is present on the mitochondria of activated microglia, astroglia and macrophages (Crawshaw and Robertson 2017). The effects of Compound 1 on the levels of Translocator Protein (18 kDa) (TSPO) were assessed in both L61 ASYN transgenic and non-transgenic mice in the aforementioned 3 month administration study. At the end of the study, the mice were sacrificed, and immunofluoresence (IF) detection of TSPO were assessed in the harvested brain tissues.
The harvested brain tissues were fixed (drop fixed in 4% paraformaldehyde), sectioned using a vibratome, and representative sections were assessed for TSPO with standard immunofluorescence (IF) staining. […]

Test [3] deals with glial fibrillary acidic protein (GFAP). In words: GFAP IHC, L61 ASYN transgenic mice. It counts as in vivo. Here is the method:
Neuroinflammation is also associated with increased expression of glial fibrillary acidic protein (GFAP) in activated astrocytes, which is induced by a variety of molecules including pro-inflammatory mediators released from activated microglia (Saijo et al. 2009). Increased expression of glial fibrillary acidic protein (GFAP) represents astroglial activation and gliosis during neurodegeneration. (Brahmachari et al., 2006). The effects of Compound 1 on GFAP expression were assessed in both L61 ASYN transgenic and non-transgenic mice in a 1 month administration study. After 30 days, the mice were sacrificed, and IHC detection of GFAP was assessed in the harvested brain tissues.
The harvested brain tissues from treated mice were fixed (drop fixed in 4% PFA) and then sectioned into 40 micro thick sections using a vibratome. The representative sections containing the hippocampus were assessed for GFAP with standard immunohistochemistry staining. The general methods used for GFAP immunostaining follow those described in Rockenstein et al., J Neurosci Res. 2002, 68(5):568-78.

For test [4], the system named is dopaminergic (DAT) transporter. In words: DAT immunolabeling in striatum, L61 ASYN transgenic mice. It counts as in vivo. As to conditions: 3 months. As for the experimental part:
The harvested brain tissues were drop fixed using 4% PFA and sectioned on a vibratome, and representative sections corresponding to the striatum and cerebellum were assessed for DAT with IHC staining.
Immunolabeling studies of DAT were conducted using a monoclonal antibody (1:500; MAB369; Millipore, Temecula, Calif.) and a biotinylated secondary antibody (1:100; BA4000, Vector Labs) and analysis was performed on blindcoded sections from Line 61 transgenic and non-transgenic mice. Slides were digitized using a high resolution automated Nanozoomer slide scanner (Hamamatsu Corp.). Digitized images were analyzed using Halo (Indica Labs) image analysis software package by placing an ROI frame within the dorsal striatum and another within a separate reference brain region (for normalization of DAT signal). A thresholding algorithm was defined and then applied equally to all images to determine the average optical density of DAT immunolabeling across each ROI The results of the analysis were then exported for graphing and statistical analysis and the striatal DAT:cortical (reference region) DAT optical densities ratio was calculated for each subject.
Quantification of DAT density was carried out by calculating the immunofluorescence in striatal sections against that in cerebellum sections to derive a striatal-to-reference ratio.

From US20210290597A1, “METHOD OF TREATING A CONDITION ASSOCIATED WITH NEURODEGENERATION USING INHIBITORS OF OAT3” (Neuropore Therapies, Inc., priority 2018, published 2021) come the findings set out here.

The structures appear in SMILES notation.

The molecule `O=S(=O)(c1ccc(-n2cn[nH]c2=S)cc1)c1ccc(Cl)c(C(F)(F)F)c1` [Compound 1, 4-(4-((4-chloro-3-(trifluoromethyl)phenyl)sulfonyl)phenyl)-2,4-dihydro-3H-1,2,4-triazole-3-thione] displayed an IC50 in test [1] of 51.2 µM. Also, in test [2], the “levels of TSPO in cortex vs vehicle control” value is reported as “significantly decreased”. Moreover, in test [3] (5 mg/kg or 10 mg/kg daily i.p.), the “GFAP levels, IHC staining intensity in representative images” value is on record as “reducing cortical levels of GFAP”. In addition, the “GFAP levels, quantification of IHC staining” value in test [3] (10 mg/kg daily i.p.) is recorded as “reduces the cortical GFAP levels in a statistically significant manner”. The “striatal levels of DAT, staining intensity in representative images vs vehicle-treated L61 mice” value in test [4] (5 mg/kg or 10 mg/kg daily) was “restoring striatal levels of DAT”. The “DAT striatal-to-reference ratio, quantification (FIG. 24)” value in test [4] (10 mg/kg daily) is “reduces the GFAP levels in a statistically significant manner”.
